Source: patent publication US10654848B1, “Neutrophil inflammation inhibitor and uses thereof” (Chang Gung University of Science and Technology, priority 2018, dated 2020)
Where a name gives a salt, the structure may show the parent alone.

How the values were obtained:
[1] = system: human neutrophils; test: Superoxide anion (O2•−) generation in fMLF/CB-activated human neutrophils (SOD-inhibitable ferricytochrome c reduction); type: cell-based; conditions: at 10 μM concentration; FMLP/CB-induced human neutrophils; mean ± S.E.M. (n = 3-5)
Procedure: Human neutrophils were obtained in lipopolysaccharide-free conditions by means of dextran sedimentation and Ficoll centrifugation.
O2^•− production was determined based on the SOD-inhibitable reduction of ferricytochrome c. Briefly, neutrophils (6×10^5/mL) were treated with a candidate compound at 37° C. at various concentrations (0.001 to 10 μM) for 5 min after being supplementing with 0.5 mg/mL ferricytochrome c and 1 mM Ca^2+. Cells were then activated with fMLF (0.1 μM) for 10 min in the pre-process of cytochalasin B (CB, 1 μg/mL) for 3 min. Changes in absorbance with the reduction of ferricytochrome c at 550 nm were continuously monitored in a double-beam, six-cell positioner spectrophotometer with constant stirring (Hitachi U-3010, Tokyo, Japan). Calculations were based on the differences in the reactions with and without SOD (100 U ml^−1) divided by the extinction coefficient for the reduction of ferricytochrome c (E=21.1 mM^−1/10 mm).

| SMILES | melting point | Superoxide Anion Inhibition % [1] |
| --- | --- | --- |
| Cn1nc(N)c2c(Nc3ccc(F)cc3)nc3ccccc3c21 (as salt: salt) [Compound 4, 4-(4-Fluoroanilino)-1-methyl-1H-pyrazolo[4,3-c]quinolin-3-amine] | 218 to 219 °C |  |
| COc1cccc(Nc2nc3ccccc3c3c2c(N)nn3C)c1 (as salt: salt) [Compound 6, 4-(3-Methoxyanilino)-1-methyl-1H-pyrazolo[4,3-c]quinolin-3-amine] | 284 to 286 °C |  |
| COc1ccc(Nc2nc3ccccc3c3c2c(N)nn3C)cc1 (as salt: salt) [Compound 7, 4-(4-Methoxyanilino)-1-methyl-1H-pyrazolo[4,3-c]quinolin-3-amine] | 193 to 194 °C |  |
| COc1cc(Nc2nc3ccccc3c3c2c(N)nn3C)cc(OC)c1OC (as salt: salt) [Compound 8, 4-(3,4,5-Trimethoxyanilino)-1-methyl-1H-pyrazolo[4,3-c]quinolin-3-amine] | 219 to 220 °C |  |
| CSc1ccc(Nc2nc3ccccc3c3c2c(N)nn3C)cc1 (as salt: salt) [Compound 9, 1-Methyl-4-(4-methylthioanilino)-1H-pyrazolo[4,3-c]quinolin-3-amine] | 233 to 235 °C |  |
| Cn1nc(N)c2c(Nc3ccccc3O)nc3ccccc3c21 (as salt: salt) [Compound 11, 4-(2-Hydroxyanilino)-1-methyl-1H-pyrazolo[4,3-c]quinolin-3-amine] | 233 to 235 °C |  |
| Cn1nc(N)c2c(Nc3cccc(O)c3)nc3ccccc3c21 (as salt: salt) [Compound 12, 4-(3-Hydroxyanilino)-1-methyl-1H-pyrazolo[4,3-c]quinolin-3-amine] | 190 to 191 °C |  |
| Cn1nc(N)c2c(Nc3ccc(O)cc3)nc3ccccc3c21 (as salt: salt) [Compound 13, 4-(4-Hydroxyanilino)-1-methyl-1H-pyrazolo[4,3-c]quinolin-3-amine] | 320 to 322 °C |  |
| Cn1nc(N)c2c(Nc3ccc(C(F)(F)F)cc3)nc3ccccc3c21 (as salt: salt) [Compound 14, 4-(4-Trifluoromethylanilino)-1-methyl-1H-pyrazolo[4,3-c]quinolin-3-amine] | 219 to 220 °C |  |
| Cn1nc(N)c2c(Nc3ccccc3S)nc3ccccc3c21 (as salt: salt) [Compound 16, 2-[(3-amino-1-methyl-1H-pyrazolo[4,3-c]quinolin-4-yl)amino]benzenethiol] | 235 to 236 °C |  |
| Cn1nc(N)c2c(Nc3ccc(Cl)cc3)nc3ccccc3c21 (as salt: salt) [Compound 17, 4-(4-Chloroanilino)-1-methyl-1H-pyrazolo[4,3-c]quinolin-3-amine] | 281 to 282 °C |  |
| Cc1ccc(Nc2nc3ccccc3c3c2c(N)nn3C)cc1 (as salt: salt) [Compound 18, 4-(4-Methylanilino)-1-methyl-1H-pyrazolo[4,3-c]quinolin-3-amine] | 253 to 255 °C |  |
| COc1cc(Nc2nc3ccccc3c3onc(N)c23)cc(OC)c1OC (as salt: salt) [Compound 24, 4-(3,4,5-Trimethoxyanilino)isoxazolo[4,5-c]quinolin-3-amine] | 264 to 266 °C |  |
| COc1ccccc1Nc1nc2ccccc2c2c1c(N)nn2C [Compound 5, 4-(2-Methoxyanilino)-1-methyl-1H-pyrazolo[4,3-c]quinolin-3-amine] | 229 to 230 °C |  |
| CSc1ccc(Nc2nc3ccccc3c3onc(N)c23)cc1 [Compound 25, 4-(4-Methylthioanilino)isoxazolo[4,5-c]quinolin-3-amine] |  | enhanced |
| Nc1noc2c1c(Nc1ccc(C(F)(F)F)cc1)nc1ccccc12 [Compound 30, 4-(4-Trifluoromethylanilino)isoxazolo[4,5-c]quinolin-3-amine] |  | enhanced |
| Cc1ccc(Nc2nc3ccccc3c3onc(N)c23)cc1 [Compound 33, 4-(4-Methylanilino)isoxazolo[4,5-c]quinolin-3-amine] |  | enhanced |

More lines, main results first:

| melting point | SMILES | Superoxide Anion Inhibition % [1] |
| --- | --- | --- |
| 325 to 326 °C | Cn1nc(N)c2c(Nc3ccc(C(=O)O)cc3)nc3ccccc3c21 (as salt: salt) [Compound 15, 4-[(3-Amino-1-methyl-1H-pyrazolo[4,3-c]quinolin-4-yl)amino]benzoic acid] |  |
| 266 to 267 °C | Nc1noc2c1c(Nc1ccccc1)nc1ccccc12 (as salt: salt) [Compound 19, 4-Anilinoisoxazolo[4,5-c]quinolin-3-amine] |  |
| 271 to 272 °C | Nc1noc2c1c(Nc1ccc(F)cc1)nc1ccccc12 (as salt: salt) [Compound 20, 4-(4-Fluoroanilino)isoxazolo[4,5-c]quinolin-3-amine] |  |
| 261 to 262 °C | COc1ccccc1Nc1nc2ccccc2c2onc(N)c12 (as salt: salt) [Compound 21, 4-(2-Methoxyanilino)isoxazolo[4,5-c]quinolin-3-amine] |  |
| 262 to 263 °C | COc1cccc(Nc2nc3ccccc3c3onc(N)c23)c1 (as salt: salt) [Compound 22, 4-(3-Methoxyanilino)isoxazolo[4,5-c]quinolin-3-amine] |  |
| 257 to 259 °C | COc1ccc(Nc2nc3ccccc3c3onc(N)c23)cc1 (as salt: salt) [Compound 23, 4-(4-Methoxyanilino)isoxazolo[4,5-c]quinolin-3-amine] |  |
| 246 to 247 °C | CSc1ccc(Nc2nc3ccccc3c3onc(N)c23)cc1 (as salt: salt) [Compound 25, 4-(4-Methylthioanilino)isoxazolo[4,5-c]quinolin-3-amine] |  |
| 249 to 250 °C | CC(=O)c1cccc(Nc2nc3ccccc3c3onc(N)c23)c1 (as salt: salt) [Compound 26, 4-(3-Acetoylanilino)isoxazolo[4,5-c]quinolin-3-amine] |  |
| 255 to 257 °C | CC(=O)c1ccc(Nc2nc3ccccc3c3onc(N)c23)cc1 (as salt: salt) [Compound 27, 4-(4-Acetoylanilino)isoxazolo[4,5-c]quinolin-3-amine] |  |
| 240 to 241 °C | Nc1noc2c1c(Nc1ccccc1O)nc1ccccc12 (as salt: salt) [Compound 28, 4-(2-Hydroxyanilino)isoxazolo[4,5-c]quinolin-3-amine] |  |
| 236 to 237 °C | Nc1noc2c1c(Nc1ccc(O)cc1)nc1ccccc12 (as salt: salt) [Compound 29, 4-(4-Hydroxyanilino)isoxazolo[4,5-c]quinolin-3-amine] |  |
| 227 to 229 °C | Nc1noc2c1c(Nc1ccc(C(F)(F)F)cc1)nc1ccccc12 (as salt: salt) [Compound 30, 4-(4-Trifluoromethylanilino)isoxazolo[4,5-c]quinolin-3-amine] |  |
| 308 to 310 °C | Nc1noc2c1c(Nc1ccc(C(=O)O)cc1)nc1ccccc12 (as salt: salt) [Compound 31, 4-[(3-aminoisoxazolo[4,5-c]quinolin-4-yl)amino]benzoic acid] |  |
| 268 to 269 °C | Nc1noc2c1c(Nc1ccc(Cl)cc1)nc1ccccc12 (as salt: salt) [Compound 32, 4-(4-Chloroanilino)isoxazolo[4,5-c]quinolin-3-amine] |  |
| 173 to 175 °C | Cc1ccc(Nc2nc3ccccc3c3onc(N)c23)cc1 (as salt: salt) [Compound 33, 4-(4-Methylanilino)isoxazolo[4,5-c]quinolin-3-amine] |  |
| 272 to 274 °C | CC(=O)c1ccc(Nc2nc3ccccc3c3c2c(N)nn3C)cc1 [Compound 10, 4-(4-Acetoylanilino)-1-methyl-1H-pyrazolo[4,3-c]quinolin-3-amine] |  |
